The results in this text go back to patent US20220128545A1, “METHODS AND COMPOSITIONS FOR ANALYZING PLATELETS BY MASS CYTOMETRY” (Children's Medical Center Corporation, priority 2018, published 2022).

Test [1] relates to platelet surface activated integrin αIIbβ3. The experiment in a line: cells. Format: cell-based, human. The procedure:
(§1) FIGS. 2A-2D depict a comparison of MC and FFC platforms for measurement of agonist-stimulated integrin αIIbβ3 activation (PAC1) and P-selectin expression (CD62P) on platelets. Citrate-anticoagulated blood from 3 separate healthy donors was treated with vehicle or the indicated concentrations of ADP (A, B) or thrombin receptor activating peptide (TRAP) (C, D); for 30 minutes in the presence of PAC1-FITC or […] antibodies to assess integrin αIIbβ3 activation (A, C) and CD62P-PE or CD62P-172Yb antibodies to assess a-granule secretion (B, D). Samples were fixed in 1% formaldehyde and analyzed by MC or FFC. Data were analyzed using a non-linear fit of log agonist vs. response; variable slope in GraphPad Prism 5. Results are expressed as a percentage of mean metal intensity (MMI; MC readout) or the mean fluorescence intensity (MFI; FFC readout) achieved with 200 μM adenosine diphosphate (ADP) or TRAP, respectively (means±SEM; n=2/3, with n=2 accounting for the linear region of the TRAP dose-response [concentrations 1.5-3.5 μM] and n=3 accounting for all other concentrations [0-1 μM & 5-200 μM]).
(§2) Blood was collected by venipuncture with a 21-gauge butterfly needle into evacuated tubes containing 3.2% sodium citrate. Blood was drawn from healthy volunteers or GT patients who were free from antiplatelet agents and non-steroidal anti-inflammatory drugs for 10 days prior to the donation. The blood draws were performed by the same phlebotomist. Complete blood cell counts were performed in a Sysmex XN-1000 Hematology Analyzer.
(§3) A panel of metal-labeled antibodies directed against platelet antigens of interest was assembled (FIG. 1A). Antibody clones were well-characterized, widely used and purchased from reputable vendors. Platelets in whole blood were reacted with the panel (containing anti-CD9-171Yb, anti-CD29-176Yb, anti-CD31-145Nd, anti-CD36-150Nd, anti-CD42a-155Gd, anti-CD42b-163Dy, anti-CD41-149Sm, anti-CD62P-172Yb, anti-CD61-165Ho, anti-CD63-161Dy, anti-CD107a-166Er, anti-CD154-154Sm, anti-GPVI-152Sm and anti-PAC1-159Tb; see FIG. 1A, Materials, and Table 1 for antibody information) in the presence of vehicle (HT-BSA), TRAP or ADP at the indicated concentrations for 30 minutes (FIG. 1B). Samples were fixed in 1% formaldehyde/HEPES-saline solution containing 125 nM Iridium 191/193 Cell-ID DNA Intercalator for 30 minutes. […] Samples were passed through a 35 μm cell-strainer (Corning Inc, Corning, N.Y.) and analyzed on a Helios Mass Cytometer (Fluidigm Corporation, San Francisco, Calif.; FIG. 1C). […]
(§4) Data were analyzed using GraphPad version 5.0 software (GraphPad Software, La Jolla, Calif.) and are presented as mean±standard error of the mean. […]

Test [2] concerns platelet surface P-selectin (CD62P). The experiment in a line: cells. Format: cell-based, human. As for the experimental part:
as §1, §2, §3, §4

A further test relates to platelets in whole blood. As to the kind of experiment: MC panel of 12 additional platelet surface markers during TRAP or ADP stimulation. Format: cell-based, human. Particulars: 30 minutes; for Platelet surface CD41, CD61, CD63, CD9, CD107a and CD154 / Platelet surface CD42a and CD42b: agonist 0-200 μM; for Surface plasma membrane levels of CD31, CD36, CD29 and GPVI: varying agonist concentrations. As for the experimental part:
Citrate-anticoagulated blood from the same 3 separate healthy donors in FIGS. 2A-2D was simultaneously treated with vehicle or the indicated concentrations of TRAP (A) or ADP (B) for 30 minutes in the presence of a custom platelet-specific, metal-tagged antibody panel. This panel contained antibodies directed against CD41, CD61, CD63, CD9, CD107a, CD154, CD42a, CD42b, CD31, CD36, CD29 and GPVI. Samples were fixed in 1% formaldehyde and analyzed by MC. Data were analyzed using a non-linear fit of log agonist vs. response; variable slope or linear regression in GraphPad Prism 5. Results are expressed as a percentage of the mean metal intensity (MMI) achieved with 200 μM ADP or TRAP (means±SEM; n=2/3, with n=2 accounting for the linear region of the TRAP dose-response [concentrations 1.5-3.5 μM)] and n=3 accounting for all other concentrations [0-1 μM and 5-200 μM]). Statistical analysis: 1-way ANOVA was used in conjunction with a Dunnett multiple comparison test (all results compared to vehicle control) to indicate statistical significance; *P<0.05, **P<0.01 and ***P<0.001. Abbreviations: ADP, adenosine diphosphate; FFC, fluorescence flow cytometry; MC, mass cytometry; TRAP, thrombin receptor activating peptide.
A panel of metal-labeled antibodies directed against platelet antigens of interest was assembled (FIG. 1A). Antibody clones were well-characterized, widely used and purchased from reputable vendors. Platelets in whole blood were reacted with the panel (containing anti-CD9-171Yb, anti-CD29-176Yb, anti-CD31-145Nd, anti-CD36-150Nd, anti-CD42a-155Gd, anti-CD42b-163Dy, anti-CD41-149Sm, anti-CD62P-172Yb, anti-CD61-165Ho, anti-CD63-161Dy, anti-CD107a-166Er, anti-CD154-154Sm, anti-GPVI-152Sm and anti-PAC1-159Tb; see FIG. 1A, Materials, and Table 1 for antibody information) in the presence of vehicle (HT-BSA), TRAP or ADP at the indicated concentrations for 30 minutes (FIG. 1B). Samples were fixed in 1% formaldehyde/HEPES-saline solution containing 125 nM Iridium 191/193 Cell-ID DNA Intercalator for 30 minutes. Cells were washed two times in MilliQ deionized H2O to remove salts and resuspended in 0.5 mL of MilliQ deionized H20 containing EQ Four Element Calibration Beads (1:10 v/v [33,000 beads/mL]). Samples were passed through a 35 μm cell-strainer (Corning Inc, Corning, N.Y.) and analyzed on a Helios Mass Cytometer (Fluidigm Corporation, San Francisco, Calif.; FIG. 1C). Cell events were acquired at 300-500 events per second and >30,000 events were acquired in total. Platelets were gated based on DNA content (DNA-low) and CD41/CD61 expression (see FIG. 8 for the MC platelet gating strategy). High-dimensional analyses of platelet subpopulations were carried out using the visual stochastic neighbor embedding (viSNE) cluster analysis function in CYTOBANK™ software (www.cytobank.org). Experiments were carried out by the same scientist and all reagents were from the same lot.

The target of test [3] is T1, activated integrin αIIbβ3 (Homo sapiens, UniProt P05106+P08514).
T1 construct: endogenous in cells; host or cells: platelets in citrate-anticoagulated human whole blood
As to the kind of experiment: Specificity of in-house metal-tagged PAC1 for integrin αIIbβ3 (agonist stimulation, eptifibatide blockade) by MC. Format: cell-based. Particulars: whole blood; for Platelet surface activated αIIbβ3 expression compared with unstimulated controls: 200 μM agonist, PAC1-159Tb.
Source text: FIG. 6. depicts measuring the specificity of in-house metal-tagged PAC1 for integrin αIIbβ3. […] Samples were fixed in 1% formaldehyde and analyzed by MC. […] Statistical analysis: 1-way ANOVA was used in conjunction with a Bonferroni post-test (with all results compared to the MMI achieved with agonist stimulation) to indicate statistical significance; **P<0.01 and ***P<0.001.
as §3
To compare the MC and FFC platforms for platelet analysis a novel metal-tagged MC antibody panel was designed to target well-established surface markers on platelets (FIG. 1A, Table 1) including platelet surface P-selectin (monitored with anti-CD62P-172Yb) and platelet surface activated integrin αIIbβ3 (monitored with the activation-dependent monoclonal antibody PAC1, labeled in-house with 159Tb). The specificity of PAC1-159Tb for activated αIIbβ3 was assessed by its dependence on platelet activation for binding and by its blockade by the αIIbβ3 inhibitor, eptifibatide (FIG. 6A-6B).

The test system of test [4] is platelet surface activated integrin αIIbβ3. As to the kind of experiment: cells. Format: cell-based, human. The procedure: as §1, §2
(§5) Whole blood FFC analysis of platelet activation was performed as previously described. Three color analysis was performed using two cocktails of fluorescently labeled antibodies: PE-conjugated anti-CD62P, FITC-conjugated PAC1 (directed against the high affinity conformation of integrin αIIbβ3) and PE-Cy5-conjugated anti-CD42b; or PE-conjugated anti-CD41a, FITC-conjugated anti-CD61 and PE-Cy5-conjugated anti-CD42b (see Table 2 for antibody information). Citrate-anticoagulated whole blood was treated with vehicle, TRAP or ADP at the indicated concentrations in the presence of the appropriate fluorescently labeled antibody cocktail for 30 minutes at ambient temperature. Samples were fixed in 1% formaldehyde/HEPES-saline buffer for 30 minutes prior to analysis in a FACSCalibur flow cytometer (BD Biosciences, San Jose, Calif.). Platelets were gated based on forward light scatter, side light scatter and CD42b expression (see FIG. 8 for FFC platelet gating strategy). A total of 15,000 platelet events per sample were collected. […]
as §4
This is another data set of the same source.

In test [5] the test system is platelet surface P-selectin (CD62P). As to the kind of experiment: cells. Format: cell-based, human. As for the experimental part: as §1, §2, §5, §4
The source holds these as a separate data set.

Where two headings read alike, the source gives them in different places. Bridge positions count the residues as written; N and C are the ends. Square brackets hold non-standard residues; d marks the D form. Peptide text beside a SMILES is read from it. hArg = N=C(N)NCCCC[C@H](N)C(=O)O; Mpa = O=C(O)CCS

T1 sequence (P08514 32-887 limits assumed): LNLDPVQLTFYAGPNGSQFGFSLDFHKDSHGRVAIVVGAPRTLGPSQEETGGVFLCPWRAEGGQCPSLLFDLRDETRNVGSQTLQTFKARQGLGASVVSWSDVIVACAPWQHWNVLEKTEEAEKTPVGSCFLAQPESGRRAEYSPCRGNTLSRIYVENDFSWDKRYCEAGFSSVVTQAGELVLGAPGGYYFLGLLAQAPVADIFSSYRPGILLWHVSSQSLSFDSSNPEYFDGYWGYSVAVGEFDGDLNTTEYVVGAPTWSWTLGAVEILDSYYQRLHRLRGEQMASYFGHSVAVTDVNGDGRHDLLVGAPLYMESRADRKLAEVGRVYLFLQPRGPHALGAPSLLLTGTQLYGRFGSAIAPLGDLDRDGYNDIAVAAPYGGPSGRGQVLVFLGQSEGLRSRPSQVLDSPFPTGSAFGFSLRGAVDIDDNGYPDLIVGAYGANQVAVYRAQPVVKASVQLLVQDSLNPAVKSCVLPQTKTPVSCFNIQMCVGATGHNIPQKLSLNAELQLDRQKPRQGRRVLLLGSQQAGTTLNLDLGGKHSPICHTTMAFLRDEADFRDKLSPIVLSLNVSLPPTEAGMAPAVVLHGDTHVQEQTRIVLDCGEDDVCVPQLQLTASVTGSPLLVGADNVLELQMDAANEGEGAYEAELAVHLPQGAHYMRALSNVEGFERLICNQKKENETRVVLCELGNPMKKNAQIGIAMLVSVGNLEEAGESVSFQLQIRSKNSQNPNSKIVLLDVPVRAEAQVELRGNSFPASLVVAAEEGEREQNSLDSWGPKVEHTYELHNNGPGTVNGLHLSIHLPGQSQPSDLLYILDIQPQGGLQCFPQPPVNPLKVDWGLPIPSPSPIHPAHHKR
T1 sequence (P08514 891-1039 limits assumed): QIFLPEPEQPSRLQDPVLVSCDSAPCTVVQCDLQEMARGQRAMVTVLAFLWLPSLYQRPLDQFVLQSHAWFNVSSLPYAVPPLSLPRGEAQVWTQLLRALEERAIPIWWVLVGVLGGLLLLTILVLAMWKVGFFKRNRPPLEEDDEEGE
T1 sequence (P05106 27-788): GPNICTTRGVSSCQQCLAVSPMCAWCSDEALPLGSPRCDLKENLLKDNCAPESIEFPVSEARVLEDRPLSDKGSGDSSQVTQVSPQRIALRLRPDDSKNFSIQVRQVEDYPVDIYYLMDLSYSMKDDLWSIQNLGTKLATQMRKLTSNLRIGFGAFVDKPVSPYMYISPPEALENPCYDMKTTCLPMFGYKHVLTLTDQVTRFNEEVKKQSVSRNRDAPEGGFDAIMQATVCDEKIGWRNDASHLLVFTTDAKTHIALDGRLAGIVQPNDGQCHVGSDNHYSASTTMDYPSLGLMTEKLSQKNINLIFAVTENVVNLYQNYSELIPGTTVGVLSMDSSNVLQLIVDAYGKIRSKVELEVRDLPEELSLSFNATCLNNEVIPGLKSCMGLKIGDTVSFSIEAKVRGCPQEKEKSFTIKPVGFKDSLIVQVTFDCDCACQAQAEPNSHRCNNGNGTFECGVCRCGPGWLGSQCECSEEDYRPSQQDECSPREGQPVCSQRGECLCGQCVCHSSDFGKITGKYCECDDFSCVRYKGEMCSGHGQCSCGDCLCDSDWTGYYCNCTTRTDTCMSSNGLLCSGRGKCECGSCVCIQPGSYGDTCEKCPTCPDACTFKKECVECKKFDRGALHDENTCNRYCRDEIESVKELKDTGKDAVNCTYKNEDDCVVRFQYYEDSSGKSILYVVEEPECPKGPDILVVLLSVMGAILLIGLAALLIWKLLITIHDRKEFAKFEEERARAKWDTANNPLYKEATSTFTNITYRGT

For the compound `Nc1ncnc2c1ncn2[C@@H]1O[C@H](COP(=O)(O)OP(=O)(O)O)[C@@H](O)[C@H]1O` [ADP, Adenosine 5′-diphosphate], the EC50 turned out to be 0.8 µM in test [1] (Homo sapiens, Platelet, 0.5 h, MC, anti-PAC1-159Tb, citrate whole blood of healthy donors, 30 minutes, read-out: EC50 for agonist-induced platelet surface activated αIIbβ3); 1.3 µM in test [2] (Homo sapiens, Platelet, 0.5 h, MC, CD62P-172Yb, citrate whole blood of healthy donors, 30 minutes, read-out: EC50 for agonist-induced platelet surface P-selectin expression); 0.6 µM in test [4] (Homo sapiens, Platelet, 0.5 h, FFC, anti-PAC1-FITC, citrate whole blood of healthy donors, 30 minutes, read-out: EC50 for agonist-induced platelet surface activated αIIbβ3); 1.2 µM in test [5] (Homo sapiens, Platelet, 0.5 h, FFC, CD62P-PE, citrate whole blood of healthy donors, 30 minutes, read-out: EC50 for agonist-induced platelet surface P-selectin expression). Moreover, the “Platelet surface CD41, CD61, CD63, CD9, CD107a and CD154” value in the test with platelets in whole blood is listed as “elevated in a dose-dependent manner”. For the same compound, the “Platelet surface CD42a and CD42b” value with platelets in whole blood is “stayed constant”. The “Surface plasma membrane levels of CD31, CD36, CD29 and GPVI” value with platelets in whole blood was “remained constant”. The “Platelet surface activated αIIbβ3 expression compared with unstimulated controls” value in test [3] is “significantly elevated”.
Consider `N=C(N)NCCCC[C@@H]1NC(=O)CCSSC[C@@H](C(N)=O)NC(=O)[C@@H]2CCCN2C(=O)[C@H](Cc2c[nH]c3ccccc23)NC(=O)[C@H](CC(=O)O)NC(=O)CNC1=O` [eptifibatide] ([Mpa][hArg]GDWPC-NH2; disulfide 1-7), for which the “Blockade of anti-PAC1-159Tb binding to activated integrin αIIbβ3” value in test [3] (eptifibatide 2.5 μg/mL, following TRAP/ADP (200 μM) stimulation) is on record as “completely blocked”.
In the case of `CC(C)C[C@H](NC(=O)[C@H](CC(C)C)NC(=O)[C@H](Cc1ccccc1)NC(=O)[C@@H](N)CO)C(=O)N[C@@H](CCCNC(=N)N)C(=O)N[C@@H](CC(N)=O)C(N)=O` [TRAP, SFLLRN-NH2], the EC50 stood at 3.7 µM in test [1], 3.4 µM in test [2], 2.1 µM in test [4] and 2.3 µM in test [5]. The “Platelet surface CD41, CD61, CD63, CD9, CD107a and CD154” value with platelets in whole blood was “elevated in a dose-dependent manner”. In addition, in the test on platelets in whole blood, the “Platelet surface CD42a and CD42b” value is recorded as “trend to be dose-dependently decreased”. The “Surface plasma membrane levels of CD31, CD36, CD29 and GPVI” value in the test with platelets in whole blood was “remained constant”. For the same compound, the “Platelet surface activated αIIbβ3 expression compared with unstimulated controls” value in test [3] is recorded as “significantly elevated”.

As usually defined, the EC50 is the concentration giving half of the maximal effect.
